The kinase profiling compilation of Christmann-Franck et al. (2016)

Experiments:
Assay in all cases: Caliper, Mobility shift assay off-chip
ABL1 (human) = ABL1 (human) (UniProt P00519)
[1] = test system: ABL1 (human), P00519 [Q252H]
[2] = test system: ABL1 (human), P00519 [T315I]
ABL2 (human) = ABL2 (human) (UniProt P42684)
AURKA (human) = AURKA (human) (UniProt O14965)
CAMK2B (human) = CAMK2B (human) (UniProt Q13554)
CAMK4 (human) = CAMK4 (human) (UniProt Q16566)
CDK2 (human) = CDK2 (human) (UniProt P24941)
CHEK2 (human) = CHEK2 (human) (UniProt O96017)
DYRK1A (human) = DYRK1A (human) (UniProt Q13627)
FER (human) = FER (human) (UniProt P16591)
FGFR2 (human) = FGFR2 (human) (UniProt P21802)
[3] = test system: FGFR2 (human), P21802 [N549H]
FYN (human) = FYN (human) (UniProt P06241)
HCK (human) = HCK (human) (UniProt P08631)
INSR (human) = INSR (human) (UniProt P06213)
MAP4K4 (human) = MAP4K4 (human) (UniProt O95819)
MAPK1 (human) = MAPK1 (human) (UniProt P28482)
MARK1 (human) = MARK1 (human) (UniProt Q9P0L2)
NEK2 (human) = NEK2 (human) (UniProt P51955)
PDGFRA (human) = PDGFRA (human) (UniProt P16234)
PIM1 (human) = PIM1 (human) (UniProt P11309)
PRKACA (human) = PRKACA (human) (UniProt P17612)
PRKCA (human) = PRKCA (human) (UniProt P17252)
PRKCB1 (human) = PRKCB1 (human) (UniProt P05771)
PRKCB2 (human) = PRKCB2 (human) (UniProt P05771)
PRKCH (human) = PRKCH (human) (UniProt P24723)
PRKD1 (human) = PRKD1 (human) (UniProt Q15139)
ROCK2 (human) = ROCK2 (human) (UniProt O75116)
RPS6KA4 KD1 KD2 (human) = RPS6KA4 KD1 KD2 (human) (UniProt O75676)
RPS6KB1 (human) = RPS6KB1 (human) (UniProt P23443)
SGK1 (human) = SGK1 (human) (UniProt O00141)
SGK3 (human) = SGK3 (human) (UniProt Q96BR1)
TSSK1B (human) = TSSK1B (human) (UniProt Q9BXA7)

PDGFRA (human), sequence (P16234 whole entry, looked up): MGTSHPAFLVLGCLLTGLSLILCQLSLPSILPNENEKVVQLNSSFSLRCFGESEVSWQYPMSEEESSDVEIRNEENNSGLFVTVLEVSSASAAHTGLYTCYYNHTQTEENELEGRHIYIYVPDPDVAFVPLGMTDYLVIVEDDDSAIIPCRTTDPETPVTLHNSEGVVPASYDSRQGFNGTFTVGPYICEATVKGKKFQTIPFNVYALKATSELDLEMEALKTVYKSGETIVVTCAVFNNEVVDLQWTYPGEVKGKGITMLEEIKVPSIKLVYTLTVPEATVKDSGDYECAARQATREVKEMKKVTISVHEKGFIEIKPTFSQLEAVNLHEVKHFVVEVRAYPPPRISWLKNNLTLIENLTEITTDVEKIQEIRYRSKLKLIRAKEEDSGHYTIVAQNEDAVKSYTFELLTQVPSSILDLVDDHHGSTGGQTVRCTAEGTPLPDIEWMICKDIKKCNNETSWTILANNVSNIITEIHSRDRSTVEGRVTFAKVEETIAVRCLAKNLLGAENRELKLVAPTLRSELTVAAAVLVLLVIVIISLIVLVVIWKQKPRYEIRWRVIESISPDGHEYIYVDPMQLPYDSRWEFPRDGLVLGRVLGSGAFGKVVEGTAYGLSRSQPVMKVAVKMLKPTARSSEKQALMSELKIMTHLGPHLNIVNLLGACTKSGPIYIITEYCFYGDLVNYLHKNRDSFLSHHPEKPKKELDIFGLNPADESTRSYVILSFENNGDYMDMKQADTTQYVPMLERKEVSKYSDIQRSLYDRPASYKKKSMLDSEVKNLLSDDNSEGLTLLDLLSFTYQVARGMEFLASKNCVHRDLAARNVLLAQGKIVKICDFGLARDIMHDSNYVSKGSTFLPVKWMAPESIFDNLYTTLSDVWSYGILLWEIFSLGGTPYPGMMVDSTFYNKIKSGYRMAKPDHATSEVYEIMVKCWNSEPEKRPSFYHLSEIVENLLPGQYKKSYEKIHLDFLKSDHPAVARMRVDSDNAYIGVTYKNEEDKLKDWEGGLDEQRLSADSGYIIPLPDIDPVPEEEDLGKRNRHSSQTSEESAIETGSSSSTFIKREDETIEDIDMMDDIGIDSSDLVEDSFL
MARK1 (human), sequence (Q9P0L2 whole entry, looked up): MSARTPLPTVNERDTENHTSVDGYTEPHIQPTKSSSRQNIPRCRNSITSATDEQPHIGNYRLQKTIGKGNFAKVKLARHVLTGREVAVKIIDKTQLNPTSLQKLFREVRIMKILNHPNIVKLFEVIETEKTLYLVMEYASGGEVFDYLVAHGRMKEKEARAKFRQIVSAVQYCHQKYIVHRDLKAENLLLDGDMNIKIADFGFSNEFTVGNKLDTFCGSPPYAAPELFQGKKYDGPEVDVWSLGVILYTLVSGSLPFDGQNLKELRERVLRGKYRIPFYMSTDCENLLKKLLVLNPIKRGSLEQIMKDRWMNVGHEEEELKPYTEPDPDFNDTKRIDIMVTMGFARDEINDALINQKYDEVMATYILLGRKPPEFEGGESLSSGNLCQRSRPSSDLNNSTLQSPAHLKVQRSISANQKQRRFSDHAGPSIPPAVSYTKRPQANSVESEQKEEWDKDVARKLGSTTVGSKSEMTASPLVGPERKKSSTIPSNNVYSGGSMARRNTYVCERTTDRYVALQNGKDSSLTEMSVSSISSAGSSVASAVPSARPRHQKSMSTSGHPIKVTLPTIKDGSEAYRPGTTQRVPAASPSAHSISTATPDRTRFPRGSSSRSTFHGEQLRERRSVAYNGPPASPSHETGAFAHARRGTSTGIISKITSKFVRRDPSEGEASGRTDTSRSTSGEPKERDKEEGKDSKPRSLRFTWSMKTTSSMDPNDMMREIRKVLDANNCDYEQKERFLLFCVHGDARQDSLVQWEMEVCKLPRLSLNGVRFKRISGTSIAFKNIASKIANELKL
CAMK4 (human), sequence (Q16566 whole entry, looked up): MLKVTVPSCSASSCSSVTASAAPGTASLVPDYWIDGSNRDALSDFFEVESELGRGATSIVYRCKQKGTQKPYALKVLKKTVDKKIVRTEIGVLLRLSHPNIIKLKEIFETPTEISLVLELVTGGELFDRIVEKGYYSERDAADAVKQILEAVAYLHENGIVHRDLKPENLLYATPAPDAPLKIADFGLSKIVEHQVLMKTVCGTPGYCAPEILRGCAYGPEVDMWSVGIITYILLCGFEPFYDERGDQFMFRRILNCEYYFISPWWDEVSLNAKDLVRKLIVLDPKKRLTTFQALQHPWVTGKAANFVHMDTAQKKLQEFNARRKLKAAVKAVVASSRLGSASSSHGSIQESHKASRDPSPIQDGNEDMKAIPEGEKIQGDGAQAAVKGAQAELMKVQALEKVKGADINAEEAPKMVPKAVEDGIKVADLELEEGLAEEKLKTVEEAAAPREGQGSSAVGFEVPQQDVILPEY
PRKD1 (human), sequence (Q15139 whole entry, looked up): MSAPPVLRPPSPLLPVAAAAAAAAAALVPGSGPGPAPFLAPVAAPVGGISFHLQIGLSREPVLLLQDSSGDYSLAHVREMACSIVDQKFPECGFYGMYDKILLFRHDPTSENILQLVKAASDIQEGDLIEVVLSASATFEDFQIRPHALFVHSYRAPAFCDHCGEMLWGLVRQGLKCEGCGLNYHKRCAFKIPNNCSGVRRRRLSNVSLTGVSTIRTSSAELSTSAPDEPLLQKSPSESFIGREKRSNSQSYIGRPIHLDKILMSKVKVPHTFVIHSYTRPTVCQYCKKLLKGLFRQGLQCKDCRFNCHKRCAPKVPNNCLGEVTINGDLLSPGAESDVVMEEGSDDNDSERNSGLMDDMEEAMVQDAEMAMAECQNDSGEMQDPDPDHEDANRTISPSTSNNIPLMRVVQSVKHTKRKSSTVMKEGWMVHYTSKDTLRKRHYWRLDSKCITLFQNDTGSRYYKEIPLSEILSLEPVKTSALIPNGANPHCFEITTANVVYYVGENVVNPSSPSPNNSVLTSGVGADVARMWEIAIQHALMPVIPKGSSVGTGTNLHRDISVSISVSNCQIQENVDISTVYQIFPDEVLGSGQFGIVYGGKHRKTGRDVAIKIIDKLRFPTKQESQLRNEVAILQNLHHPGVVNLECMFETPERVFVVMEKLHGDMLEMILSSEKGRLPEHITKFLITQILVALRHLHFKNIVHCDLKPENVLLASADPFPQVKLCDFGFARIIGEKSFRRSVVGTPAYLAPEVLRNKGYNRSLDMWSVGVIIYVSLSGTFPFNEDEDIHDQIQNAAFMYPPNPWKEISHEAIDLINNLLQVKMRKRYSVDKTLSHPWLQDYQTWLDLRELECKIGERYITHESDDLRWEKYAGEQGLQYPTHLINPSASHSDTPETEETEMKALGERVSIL
MAPK1 (human), sequence (P28482 whole entry, looked up): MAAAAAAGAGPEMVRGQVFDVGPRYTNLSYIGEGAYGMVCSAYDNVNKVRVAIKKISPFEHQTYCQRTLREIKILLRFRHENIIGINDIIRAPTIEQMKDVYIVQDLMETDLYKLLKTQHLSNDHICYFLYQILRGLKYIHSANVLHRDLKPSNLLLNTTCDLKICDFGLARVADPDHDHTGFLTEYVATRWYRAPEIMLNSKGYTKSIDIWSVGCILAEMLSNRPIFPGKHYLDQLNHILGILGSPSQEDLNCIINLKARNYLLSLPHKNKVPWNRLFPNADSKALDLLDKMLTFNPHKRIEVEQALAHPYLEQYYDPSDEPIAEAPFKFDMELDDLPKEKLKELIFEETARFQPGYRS
MAP4K4 (human), sequence (O95819 whole entry, looked up): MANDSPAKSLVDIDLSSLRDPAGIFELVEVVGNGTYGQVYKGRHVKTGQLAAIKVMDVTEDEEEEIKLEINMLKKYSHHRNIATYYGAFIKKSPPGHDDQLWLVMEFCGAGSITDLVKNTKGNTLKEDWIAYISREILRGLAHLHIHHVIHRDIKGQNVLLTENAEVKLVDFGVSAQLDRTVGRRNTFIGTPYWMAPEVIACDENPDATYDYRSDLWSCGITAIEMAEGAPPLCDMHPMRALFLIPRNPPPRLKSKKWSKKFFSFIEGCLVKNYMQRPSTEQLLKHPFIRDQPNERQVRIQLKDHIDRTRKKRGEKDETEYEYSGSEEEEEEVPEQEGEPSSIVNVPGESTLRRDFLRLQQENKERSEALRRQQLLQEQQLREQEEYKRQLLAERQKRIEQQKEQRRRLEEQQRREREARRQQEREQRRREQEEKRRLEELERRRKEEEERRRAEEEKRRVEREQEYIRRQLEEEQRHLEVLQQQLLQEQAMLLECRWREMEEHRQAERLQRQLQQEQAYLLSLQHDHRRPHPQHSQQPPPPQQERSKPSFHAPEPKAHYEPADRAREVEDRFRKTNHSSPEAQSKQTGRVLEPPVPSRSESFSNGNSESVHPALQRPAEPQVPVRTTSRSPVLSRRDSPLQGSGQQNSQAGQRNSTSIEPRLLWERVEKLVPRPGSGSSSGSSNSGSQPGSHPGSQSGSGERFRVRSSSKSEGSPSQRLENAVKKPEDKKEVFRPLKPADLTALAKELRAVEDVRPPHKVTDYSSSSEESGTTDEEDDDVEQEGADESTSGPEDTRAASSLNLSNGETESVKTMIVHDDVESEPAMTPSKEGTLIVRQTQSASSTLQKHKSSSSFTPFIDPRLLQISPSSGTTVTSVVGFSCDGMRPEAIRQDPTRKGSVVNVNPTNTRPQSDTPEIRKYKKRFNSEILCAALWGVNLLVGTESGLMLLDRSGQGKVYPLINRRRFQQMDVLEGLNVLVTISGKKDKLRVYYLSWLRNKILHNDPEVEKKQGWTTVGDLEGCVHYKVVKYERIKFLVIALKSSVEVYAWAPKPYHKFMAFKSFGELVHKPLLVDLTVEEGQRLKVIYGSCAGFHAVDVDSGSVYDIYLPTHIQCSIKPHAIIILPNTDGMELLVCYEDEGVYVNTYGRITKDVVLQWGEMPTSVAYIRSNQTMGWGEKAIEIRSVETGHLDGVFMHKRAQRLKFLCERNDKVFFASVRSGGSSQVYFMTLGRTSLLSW

## O=c1c2cc(CS(=O)(=O)NCc3ccccn3)ccc2ccc2ncc(C3CCNCC3)cc12
ABL1 (human); compound 0.01 µM
  inhibition: -1.8%
ABL1 (human); compound 0.1 µM
  inhibition: 5.5%
[1]; compound 0.01 µM
  inhibition: 3.6%
[1]; compound 0.1 µM
  inhibition: 26.3%
[2]; compound 0.01 µM
  inhibition: 19.6%
[2]; compound 0.1 µM
  inhibition: -2.4%
ABL2 (human); compound 0.01 µM
  inhibition: 4.8%
ABL2 (human); compound 0.1 µM
  inhibition: 3.1%
AURKA (human); compound 0.01 µM
  inhibition: -4.6%
AURKA (human); compound 0.1 µM
  inhibition: 13.1%
CAMK2B (human); compound 0.01 µM
  inhibition: 79.2%
CAMK2B (human); compound 0.1 µM
  inhibition: -4.6%
CAMK4 (human); compound 0.01 µM
  inhibition: 2.8%
CAMK4 (human); compound 0.1 µM
  inhibition: -12.8%
CDK2 (human); compound 0.01 µM
  inhibition: -0.9%
CDK2 (human); compound 0.1 µM
  inhibition: -0.9%
CHEK2 (human); compound 0.01 µM
  inhibition: -5.2%
CHEK2 (human); compound 0.1 µM
  inhibition: -5.1%
DYRK1A (human); compound 0.01 µM
  inhibition: 7.6%
DYRK1A (human); compound 0.1 µM
  inhibition: -4.3%
FER (human); compound 0.01 µM
  inhibition: -6.3%
FER (human); compound 0.1 µM
  inhibition: 0.8%
FGFR2 (human); compound 0.01 µM
  inhibition: -8.2%
FGFR2 (human); compound 0.1 µM
  inhibition: 8.7%
[3]; compound 0.01 µM
  inhibition: -4.6%
[3]; compound 0.1 µM
  inhibition: 3.3%
FYN (human); compound 0.01 µM
  inhibition: -0.4%
FYN (human); compound 0.1 µM
  inhibition: -7.3%
HCK (human); compound 0.01 µM
  inhibition: 2.6%
HCK (human); compound 0.1 µM
  inhibition: -2%
INSR (human); compound 0.01 µM
  inhibition: -1.4%
INSR (human); compound 0.1 µM
  inhibition: -2.5%
MAP4K4 (human); compound 0.01 µM
  inhibition: -8.5%
MAP4K4 (human); compound 0.1 µM
  inhibition: -10.7%
MAPK1 (human); compound 0.01 µM
  inhibition: -2.5%
MAPK1 (human); compound 0.1 µM
  inhibition: -0.1%
MARK1 (human); compound 0.01 µM
  inhibition: -0.1%
MARK1 (human); compound 0.1 µM
  inhibition: -2.9%
NEK2 (human); compound 0.01 µM
  inhibition: -2.6%
NEK2 (human); compound 0.1 µM
  inhibition: -2.3%
PDGFRA (human); compound 0.01 µM
  inhibition: -15.7%
PDGFRA (human); compound 0.1 µM
  inhibition: 4.1%
PIM1 (human); compound 0.01 µM
  inhibition: -4.8%
PIM1 (human); compound 0.1 µM
  inhibition: -6.2%
PRKACA (human); compound 0.01 µM
  inhibition: 3.2%
PRKACA (human); compound 0.1 µM
  inhibition: 0.4%
PRKCA (human); compound 0.01 µM
  inhibition: 0.2%
PRKCA (human); compound 0.1 µM
  inhibition: 1.3%
PRKCB1 (human); compound 0.01 µM
  inhibition: 4.1%
PRKCB1 (human); compound 0.1 µM
  inhibition: 6.7%
PRKCB2 (human); compound 0.01 µM
  inhibition: 14.8%
PRKCB2 (human); compound 0.1 µM
  inhibition: 6%
PRKCH (human); compound 0.01 µM
  inhibition: -4.3%
PRKCH (human); compound 0.1 µM
  inhibition: -6.9%
PRKD1 (human); compound 0.01 µM
  inhibition: -2.8%
PRKD1 (human); compound 0.1 µM
  inhibition: -4.1%
ROCK2 (human); compound 0.01 µM
  inhibition: 5.8%
ROCK2 (human); compound 0.1 µM
  inhibition: 8.4%
RPS6KA4 KD1 KD2 (human); compound 0.01 µM
  inhibition: 9.3%
RPS6KA4 KD1 KD2 (human); compound 0.1 µM
  inhibition: -5.3%
RPS6KB1 (human); compound 0.01 µM
  inhibition: 6.8%
RPS6KB1 (human); compound 0.1 µM
  inhibition: -1.3%
SGK1 (human); compound 0.01 µM
  inhibition: -3.6%
SGK1 (human); compound 0.1 µM
  inhibition: -31.9%
SGK3 (human); compound 0.01 µM
  inhibition: -13.2%
SGK3 (human); compound 0.1 µM
  inhibition: -7.3%
TSSK1B (human); compound 0.01 µM
  inhibition: 7.3%
TSSK1B (human); compound 0.1 µM
  inhibition: -5.2%
